Source: ChEMBL document CHEMBL5120746, “Novel 5-fluorouracil sensitizers for colorectal cancer therapy: Design and synthesis of S1P receptor 2 (S1PR2) antagonists” (Eur J Med Chem, 2022)

Legend:
[1] = target: T1, Sphingosine 1-phosphate receptor 2 (Homo sapiens, UniProt O95136); test: Binding affinity to S1PR2 (unknown origin) by SPR assay
[2] = system: HCT-116; test: Reversal of 5-FU resistance against 5-FU resistant DPD expressed human HCT-116 cells assessed as reduction in cell viability incubated for 48 hrs in presence of 5-FU by MTT assay; type: functional, cell-based; details: HCT-116, 48 h
[3] = system: SW620/5-FU; test: Reversal of 5-FU resistance against human SW620/5-FU cells assessed as reduction in cell viability incubated for 48 hrs in presence of 5-FU by MTT assay; type: functional, cell-based
[4] = target: T1, Sphingosine 1-phosphate receptor 2; test: Antagonist activity at S1PR2 in human SW620/5-FU cells assessed as reduction of DPD-catalyzed 5-FU degradation by measuring intracellular 5-FU level at 20 uM measured after 24 hrs by HPLC-UV analysis; type: functional, cell-based; details: filed as antagonist
[5] = system: HCT-116; test: Antitumor activity against DPD expressed human HCT-116 cells xenografted in SPF nude mouse assessed as tumor growth inhibition at 15 mg/kg, iv QD for 20 days and measured every 4 days; type: functional; details: HCT-116, 480 h, time 20 day, read-out: TGI
[6] = system: SW620/5-FU; test: Antitumor activity against human SW620/5-FU cells xenografted in SPF nude mouse assessed as tumor growth inhibition at 15 mg/kg, iv QD for 21 days and measured every 4 days; type: functional; details: 504 h, time 21 day, read-out: TGI
[7] = system: SW620/5-FU; test: Antitumor activity against human SW620/5-FU cells xenografted in SPF nude mouse assessed as reduction in tumor weight at 15 mg/kg, iv QD for 21 days; type: functional; design: scale not given: the % may be the effect or the level left; details: time 21 day
[8] = system: HCT-116; test: Antiproliferative activity against 5-FU resistant DPD expressed human HCT-116 cells assessed as reduction in cell viability incubated for 48 hrs by MTT assay; type: functional, cell-based; details: HCT-116, 48 h
[9] = system: SW620/5-FU; test: Antiproliferative activity against human SW620/5-FU cells assessed as reduction in cell viability incubated for 48 hrs by MTT assay; type: functional, cell-based

T1 sequence (O95136 whole entry): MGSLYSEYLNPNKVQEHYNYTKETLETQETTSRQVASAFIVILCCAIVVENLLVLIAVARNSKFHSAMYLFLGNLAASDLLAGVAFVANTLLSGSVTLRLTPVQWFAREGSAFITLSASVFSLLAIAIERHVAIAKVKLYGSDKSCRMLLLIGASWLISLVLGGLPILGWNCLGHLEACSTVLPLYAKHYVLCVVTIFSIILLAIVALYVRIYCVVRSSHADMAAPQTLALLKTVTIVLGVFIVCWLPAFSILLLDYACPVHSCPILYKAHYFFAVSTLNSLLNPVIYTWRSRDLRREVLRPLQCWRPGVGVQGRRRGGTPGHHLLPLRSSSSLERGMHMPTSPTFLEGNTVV

Row | Compound | Kd [1] [µM] | EC50 [2] [µM] | EC50 [3] [µM] | other results
1 | Cc1nn(C)c2nc(NNC(=O)Nc3cc(Cl)nc(Cl)c3)cc(-c3ccccc3)c12 | 5.32 | 80 | 22.9 | 
2 | COc1cc(NC(=O)NNc2cc(-c3ccc(F)cc3)c3cnn(C)c3n2)cc(OC)c1OC | 4.44 | 45.3 | 39.2 | 
3 | CCN(CC)c1cc(NC(=O)NNc2cc(-c3ccc(F)cc3)c3cnn(C)c3n2)cc(Cl)n1 | 3.15 | 29.4 | 37 | 
4 | Cc1nn(C)c2nc(NNC(=O)Nc3cc(Cl)nc(Cl)c3)cc(C(C)C)c12 | 1.96 | 18.3 | 58.6 | Activity [4]: 1.75 µM
5 | CCCc1cc(NNC(=O)Nc2cc(Cl)nc(Cl)c2)nc2c1c(C)nn2C | 2.36 | 72.2 | 40.8 | 
6 | CC(C)c1cc(NNC(=O)Nc2cc(Cl)nc(Cl)c2)nc2c1c(C(F)(F)F)nn2C | 1.25 | 27.2 | 19.1 | 
7 | COc1ccc(-c2cc(NNC(=O)Nc3cc(Br)nc(Br)c3)nc3c2cnn3C)cc1 | 6.32 | 45.2 | 54.1 | 
8 | Cn1ncc2c(-c3ccccc3)cc(NNC(=O)Nc3cc(Cl)nc(Cl)c3)nc21 | 1.02 | 6.24 | 76.9 | 
9 | Cc1nn(C)c2nc(NNC(=O)Nc3cc(Cl)nc(Cl)c3)cc(-c3ccc(F)cc3)c12 | 0.98 | 25.2 | 17.4 | 
10 | CCCCOc1cc(NC(=O)NNc2cc(-c3ccc(OC)cc3)c3cnn(C)c3n2)cc(Cl)n1 | 4.15 | 36.5 | 39.2 | 
11 | Cn1ncc2c(-c3ccc(F)cc3)cc(NNC(=O)N/C=C/c3cccnc3)nc21 | 4.12 | 36.2 | 49.3 | 
12 | Cc1nn(C)c2nc(NNC(=O)Nc3cc(Cl)nc(Cl)c3)cc(C3CC3)c12 | 3.65 | 67.7 | 80.8 | 
13 | Cn1ncc2c(-c3ccc(F)cc3)cc(NNC(=O)Nc3cc(Cl)cc(Cl)c3)nc21 | 4.98 | 39.1 | 54.3 | 
14 | COc1ccc(-c2cc(NNC(=O)Nc3cc(Cl)nc(Cl)c3)nc3c2cnn3C)cc1 | 0.52 | 12.3 | 18.4 | 
15 | Cc1ccc(NC(=O)NNc2cc(-c3ccc(F)cc3)c3cnn(C)c3n2)cc1Nc1nccc(-c2cccnc2)n1 | 5.96 | 39.1 | 33.1 | 
16 | Cn1ncc2c(-c3ccc(F)cc3)cc(NNC(=O)Nc3cc(Cl)nc(OCCF)c3)nc21 | 2.79 | 37.2 | 29.3 | 
17 | CCCc1cc(NNC(=O)Nc2cc(Cl)nc(Cl)c2)nc2c1c(C(F)(F)F)nn2C | 0.89 | 38.2 | 11.7 | 

Row | Compound | Kd [1] [µM] | EC50 [2] [µM] | EC50 [3] [µM] | other results
18 | Cc1c(Cc2ccccc2)c(NNC(=O)Nc2cc(Cl)nc(Cl)c2)nc2c1cnn2C | 0.87 | 13.6 | 21.4 | 
19 | O=c1[nH]cc(F)c(=O)[nH]1 [FLUOROURACIL] |  |  |  | inhibition in vivo at 15 mg/kg [5]: 20.3%; inhibition in vivo at 15 mg/kg [6]: 21.2%; Activity [7]: 27.23%; EC50 [8]: > 1000 µM; EC50 [9]: > 1000 µM
20 | COc1ccc(-c2cc(NNC(=O)Nc3cc(Cl)nc(OC(C)C)c3)nc3c2cnn3C)cc1 | 2.32 | 39.8 | 47.1 | 
21 | CCCCOc1cc(NC(=O)NNc2cc(-c3ccc(F)cc3)c3cnn(C)c3n2)cc(Cl)n1 | 2.65 | 49.4 | 29.3 | 
22 | Cn1ncc2c(-c3ccc(F)cc3)cc(NNC(=O)Nc3cc(F)cc(F)c3)nc21 | 3.98 | 46.2 | 47.4 | 
23 | Cc1cc(NNC(=O)Nc2cc(Cl)nc(Cl)c2)nc2c1c(C)nn2C | 11 | > 100 | > 100 | 
24 | COc1ccc(-c2cc(NNC(=O)Nc3cc(Cl)nc(Cl)c3)nc3c2c(C)nn3C)cc1 | 1.02 | 82.3 | 9.7 | 
25 | Cn1nc(C(F)(F)F)c2c(-c3ccccc3)cc(NNC(=O)Nc3cc(Cl)nc(Cl)c3)nc21 | 0.94 | 18.1 | 13.1 | 
26 | CC(C)c1cc(NNC(=O)Nc2cc(Cl)nc(Cl)c2)nc2c1cnn2C | 0.78 | 17.2 | 50.1 | 
27 | Cc1nn(C)c2nc(NNC(=O)Nc3cc(Cl)nc(Cl)c3)cc(C3CCCCC3)c12 | 2.01 | 38 | 22 | 
28 | CCCc1cc(NNC(=O)Nc2cc(Cl)nc(Cl)c2)nc2c1cnn2C | 1.4 | 76.2 | 38.7 | 
29 | CCCOc1cc(NC(=O)NNc2cc(-c3ccc(OC)cc3)c3cnn(C)c3n2)cc(Cl)n1 | 3.14 | 33.2 | 37.2 | 
30 | Cc1nn(C)c2nc(NNC(=O)Nc3cc(Cl)nc(Cl)c3)cc(-c3ccco3)c12 | 6.52 | 69.2 | > 100 | 
31 | COc1cc(NC(=O)NNc2cc(-c3ccc(F)cc3)c3cnn(C)c3n2)cc(Cl)n1 | 1.65 | 75.3 | 24.1 | 
32 | COc1cc(NC(=O)NNc2cc(-c3ccccc3)c3cnn(C)c3n2)cc(Cl)n1 | 3.64 | 31.2 | 28.7 | 
33 | Cc1nn(C)c2nc(NNC(=O)Nc3cc(Cl)nc(Cl)c3)cc(-c3ccc(Cl)s3)c12 | 1.98 | 42.1 | 29.4 | 
34 | COc1ccc(-c2cc(NNC(=O)Nc3cc(Cl)nc(OC)c3)nc3c2cnn3C)cc1 | 1.98 | 54.2 | 48.8 | 
